In assay [1] the target is Genome polyprotein (Hepatitis C virus, UniProt Q2Q167). Briefly: HCV core protein dimerization inhibitors, dose response, biochemical, TR-FRET (AID 2159).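 Further: blocks dimerization of HCV core protein measured by TR-FRET between tagged core106 pairs.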 On the set-up: species or system Hepacivirus hominis. Background: Time-resolved FRET reads energy transfer from a long-lived donor to a nearby acceptor.
The target in assay [2] is T1, Sphingosine 1-phosphate receptor 2 (Homo sapiens, UniProt O95136). Briefly: Dose Response Cell Based Assay for Agonists of the S1P2 Receptor of Purchased Analogues. [Related pubchem assays: 729, 843, 854, 736 ]. The class given is functional.
Assay [3] has as its target Estrogen receptor beta (Homo sapiens, UniProt Q92731).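 Further: recombinant ER-beta bound to coactivator SRC1 peptide in presence of estradiol agonist; inhibitors block coactivator peptide binding and lower the FRET signal.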
In assay [4] the target is Prothrombin (Homo sapiens, UniProt P00734). Put plainly: Thrombin 1536 HTS Dose Response Confirmation. [Related pubchem assays: 1046 (Thrombin 1536 HTS; hits were confirmed in this assay)]. Type of assay: functional.
The target of assay [5] is Mitogen-activated protein kinase 10 (Homo sapiens, UniProt P53779). Put plainly: Dose response biochemical screening assay for inhibitors of c-Jun N-Terminal Kinase 3 (JNK3). [Related pubchem assays: 746 ].
The target in assay [6] is Cytochrome P450 2C19 (Homo sapiens, UniProt P33261). Put plainly: Cytochrome panel assay with activity outcomes. Panel member name: p450-cyp2c19 Compounds with AC50 equal or less than 10 uM are considered active. Type of assay: functional. The following applies: read-out: AC50.
Assay [7] addresses Cytochrome P450 2C9 (Homo sapiens, UniProt P11712).
Assay [8] addresses Protein Tat (Human immunodeficiency virus type 1 group M subtype B (isolate HXB2)(HIV-1), UniProt P04608). Type of assay: functional.
The nature of assay [9]: inhibitors of Vif binding to APOBEC3G peptide, primary screen, biochemical, TR-FRET, GST-Vif 1-94, biotin-A3G peptide, dose response retest (AID 1117319).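 Further: TR-FRET signal of purified GST-Vif binding a biotinylated A3G peptide; inhibitors lower the FRET signal by blocking Vif and A3G binding.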 Type of assay: functional.
In assay [10] the target is 5-hydroxytryptamine receptor 1A (Homo sapiens, UniProt P08908). Type of assay: functional.
Assay [11] concerns the target Nonstructural protein 1 (Influenza A virus, UniProt Q194T2). The class given is functional, Influenza A virus (A/California/07/2009(H1N1)).
The target in assay [12] is Ras and Rab interactor 1/Tyrosine-protein kinase ABL1 (Homo sapiens, UniProt P00519+Q13671). Type of assay: functional.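 Further: biochemical TR-FRET dose-response test measuring inhibition of binding between Rin1 and Abl proteins.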
Assay [13] is described as follows: THP-1 cell cytotoxicity, dose response, cytotoxicity control for Vif-APOBEC3G degradation inhibitor project, THP-1 cells (AID 1117359). The following applies: Human immunodeficiency virus 1, THP-1. Type of assay: functional.
The target in assay [14] is Glutathione-S-transferase (Schistosoma japonicum, UniProt Q26513). Put plainly: biotin-GST/anti-GST TR-FRET signal inhibitors, dose response, artefact control for Vif-APOBEC3G degradation inhibitor project, biochemical (AID 1117362). Type of assay: functional.
The nature of assay [15]: M. tuberculosis H37Rv growth inhibitors, H37Rv strain (AID 1626). Type of assay: functional.
Assay [16] addresses Peroxisome proliferator-activated receptor gamma/Nuclear receptor corepressor 2 (Homo sapiens, UniProt P37231+Q9Y618). Put plainly: Counterscreen for NR2E3 inverse agonists: TR-FRET-based biochemical high throughput dose response assay to identify inverse agonists of the interaction between peroxisome proliferator-activated receptor gamma (PPARg) and nuclear receptor co-repressor 2 (NCOR2). The class given is functional.

Assay [17] deals with Photoreceptor-specific nuclear receptor (Homo sapiens, UniProt Q9Y5X4). Briefly: NR2E3 inverse agonists, dose response, biochemical, TR-FRET (AID 463256). Type of assay: functional.
The target of assay [18] is T2, Leucine aminopeptidase (Plasmodium falciparum 3D7, UniProt Q8IL11).
T2 sequence (Q8IL11 whole entry): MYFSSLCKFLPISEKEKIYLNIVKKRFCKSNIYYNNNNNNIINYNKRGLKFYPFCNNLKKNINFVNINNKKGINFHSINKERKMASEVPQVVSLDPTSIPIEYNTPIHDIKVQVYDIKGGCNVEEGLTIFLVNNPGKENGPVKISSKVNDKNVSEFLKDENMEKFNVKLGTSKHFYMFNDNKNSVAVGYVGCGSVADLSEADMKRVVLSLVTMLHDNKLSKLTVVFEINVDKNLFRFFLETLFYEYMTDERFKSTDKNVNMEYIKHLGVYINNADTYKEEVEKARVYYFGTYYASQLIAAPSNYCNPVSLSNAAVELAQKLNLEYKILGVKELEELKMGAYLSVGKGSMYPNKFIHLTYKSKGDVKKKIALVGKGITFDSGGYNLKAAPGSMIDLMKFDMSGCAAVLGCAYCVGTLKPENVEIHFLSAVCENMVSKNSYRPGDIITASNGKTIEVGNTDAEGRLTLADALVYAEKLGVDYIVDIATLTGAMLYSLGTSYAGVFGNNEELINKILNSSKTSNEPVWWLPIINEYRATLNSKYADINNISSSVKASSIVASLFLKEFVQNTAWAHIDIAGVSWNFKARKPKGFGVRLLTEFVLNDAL
Briefly: P. falciparum M17LAP inhibitors, primary screen, biochemical, fluorogenic H-Leu-NHMec substrate, 1536-well (AID 1619). Type of assay: functional.

Assay [19] addresses Aspartyl aminopeptidase (Plasmodium falciparum 3D7, UniProt Q8I2J3). Put plainly: Counterscreen for inhibitors of M1 and M17 aminopeptidases: QFRET-based biochemical high throughput dose response assay for inhibitors of the Plasmodium falciparum M18 Aspartyl Aminopeptidase (PFM18AAP). [Related PubChem assays: 1619 (Screening assay (M17LAP inhibitors).), 1445 (Screening assay (M1AAP inhibitors).)]. In general terms: Counterscreens check selectivity or assay interference.

In assay [20] the target is Procathepsin L (Homo sapiens, UniProt P07711). Briefly: cathepsin L inhibitors, dose response, counter-screen for M1/M17 aminopeptidase inhibitor project, biochemical, QFRET, 1536-well (AID 2214).
The target in assay [21] is T3, Probable nicotinate-nucleotide adenylyltransferase (Staphylococcus aureus (strain N315), UniProt P65502). The class given is functional, Staphylococcus aureus subsp. aureus N315.
The target of assay [22] is T3, Probable nicotinate-nucleotide adenylyltransferase. The class given is functional, Staphylococcus aureus subsp. aureus N315. The following applies: read-out: IC50_Mean.
Assay [23] deals with Induced myeloid leukemia cell differentiation protein Mcl-1 (Homo sapiens, UniProt Q07820). Briefly: MCL1-BIM BH3 interaction inhibitors, dose response, biochemical, fluorescence polarization, BIM-BH3 peptide, 1536-well (AID 2217). Background: In fluorescence polarisation assays a small probe gives low polarisation when free and higher when bound to something large.
The target of assay [24] is Bcl-2-like protein 1 (Homo sapiens, UniProt Q07817). Briefly: BCL-XL inhibitors, dose response, selectivity assay for MCL1 inhibitor project, biochemical, fluorescence polarization, 1536-well (AID 2218).
In assay [25] the target is T4, E3 ubiquitin-protein ligase XIAP (Homo sapiens, UniProt P98170). Briefly: Counter Screen using XIAP-Bir3 for Chemical Antagonists of Bir1/2 domains of IAP-family anti-apoptotic proteins. [Related pubchem assays (depositor defined):AID1018, AID1449, AID1514, AID1638, AID1749, AID1750, AID488957, AID488963].
For assay [26], the target named is T4, E3 ubiquitin-protein ligase XIAP. Put plainly: XIAP antagonists, biochemical, IAP family, fluorescence polarization (AID 1018). Type of assay: functional.
The target in assay [27] is T1, Sphingosine 1-phosphate receptor 2. Put plainly: Dose Response Cell Based Assay for Antagonists of the S1P2 Receptor. [Related pubchem assays: 856, 736 ]. Type of assay: functional.
The target in assay [28] is Large T antigen (Simian virus 40, UniProt P03070). The class given is functional, Betapolyomavirus macacae.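 Further: Confirmatory-stage PubChem screen for compounds that inhibit SV40 T antigen.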
Assay [29] is described as follows: half-maximal inhibitory concentration for glucagon-like peptide-1 release, STC-1 cell line, dose-response (AID 1117345). The class given is functional, cell-based.
Assay [30] is described as follows: Glucagon-like peptide 1 release potency, NCI-H716 cell line, dose-response, half-maximal inhibitory concentration (AID 1117344). The class given is functional, cell-based.
Assay [31] is described as follows: P. falciparum 3D7-ScDHODH growth inhibitors, dose response, SYBR Green, dry powder samples (AID 1159570).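 Further: parasite growth measured after 72 hours of compound exposure.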 Type of assay: functional, cell-based.
Assay [32] is described as follows: HepG2 cell cytotoxicity, dose response, cytotoxicity control, plate reader, dry powder samples (AID 1159569).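 Further: inhibitor potency with signal falling toward the positive control level.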 The class given is functional, cell-based.
The nature of assay [33]: P. falciparum Dd2 growth inhibitors, dose response, SYBR Green, cherry-picked samples (AID 1159567). The class given is functional, cell-based.
Assay [34] is described as follows: P. falciparum Dd2 growth inhibitors, dose response, SYBR Green, dry powder samples (AID 1159566).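 Further: potency for growth inhibition with lower SYBR green DNA signal.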 Type of assay: functional, cell-based.
Assay [35] is described as follows: Plasmodium falciparum Dd2 Sybr green parasite growth Measured in Cell-Based and Microorganism Combination System Using Plate Reader - 2153-01_Inhibitor_Dose_DryPowder_Activity_Set3. Type of assay: functional.
The nature of assay [36]: P. falciparum ATP4 D1247Y mutant growth inhibitors, dose response, NITD609-resistant line, SYBR Green, dry powder (AID 1159571).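 Further: parasites synchronized at ring stage by sorbitol before testing.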 The class given is functional, cell-based.
For assay [37], the target named is NADPH oxidase 1 (Homo sapiens, UniProt Q9Y5S8). Briefly: Late-stage luminescence-based cell-based dose response assay to identify inhibitors of NADPH oxidase 1 (NOX1): Synthesized analogs 2. Type of assay: functional.

Calls of active or inactive are those of the source.

Results on 16 compounds are retold here after ChEMBL document CHEMBL1201862, “PubChem BioAssay data set” (2004).
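Wherever IC50 Mean is given: confirmatory dose-response retesting of NadD inhibitor hits first found in an ultra-high-throughput screen.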

T1 sequence (O95136 whole entry): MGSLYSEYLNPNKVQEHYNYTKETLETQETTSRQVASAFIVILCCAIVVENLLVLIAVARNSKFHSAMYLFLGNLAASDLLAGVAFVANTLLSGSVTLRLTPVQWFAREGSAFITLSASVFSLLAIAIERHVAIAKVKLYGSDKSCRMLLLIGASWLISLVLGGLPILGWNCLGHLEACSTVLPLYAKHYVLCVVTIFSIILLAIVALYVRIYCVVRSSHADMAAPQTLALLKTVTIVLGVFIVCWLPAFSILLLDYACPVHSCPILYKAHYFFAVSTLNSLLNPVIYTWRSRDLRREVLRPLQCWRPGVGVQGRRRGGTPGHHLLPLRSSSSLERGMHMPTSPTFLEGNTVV
T3 sequence (P65502 whole entry): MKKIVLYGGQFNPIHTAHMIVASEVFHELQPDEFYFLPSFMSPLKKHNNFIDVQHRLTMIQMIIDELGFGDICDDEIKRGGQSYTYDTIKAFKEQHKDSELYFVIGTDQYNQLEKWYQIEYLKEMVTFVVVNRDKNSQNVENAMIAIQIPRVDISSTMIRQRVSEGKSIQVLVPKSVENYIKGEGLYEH
T4 sequence (P98170 whole entry): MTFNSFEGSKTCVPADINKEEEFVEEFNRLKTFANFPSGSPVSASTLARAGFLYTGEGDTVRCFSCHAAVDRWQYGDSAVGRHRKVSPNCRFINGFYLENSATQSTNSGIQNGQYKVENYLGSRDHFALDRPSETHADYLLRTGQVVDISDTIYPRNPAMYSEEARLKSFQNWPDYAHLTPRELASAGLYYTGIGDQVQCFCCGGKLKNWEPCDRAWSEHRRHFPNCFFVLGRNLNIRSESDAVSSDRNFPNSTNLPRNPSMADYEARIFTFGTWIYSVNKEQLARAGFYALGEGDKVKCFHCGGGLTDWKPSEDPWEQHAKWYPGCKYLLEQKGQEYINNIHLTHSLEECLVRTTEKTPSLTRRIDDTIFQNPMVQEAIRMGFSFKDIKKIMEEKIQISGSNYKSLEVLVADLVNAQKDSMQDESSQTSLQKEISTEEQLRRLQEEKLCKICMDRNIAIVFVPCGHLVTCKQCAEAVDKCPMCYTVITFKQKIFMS
Ras and Rab interactor 1/Tyrosine-protein kinase ABL1, sequence (P00519 whole entry): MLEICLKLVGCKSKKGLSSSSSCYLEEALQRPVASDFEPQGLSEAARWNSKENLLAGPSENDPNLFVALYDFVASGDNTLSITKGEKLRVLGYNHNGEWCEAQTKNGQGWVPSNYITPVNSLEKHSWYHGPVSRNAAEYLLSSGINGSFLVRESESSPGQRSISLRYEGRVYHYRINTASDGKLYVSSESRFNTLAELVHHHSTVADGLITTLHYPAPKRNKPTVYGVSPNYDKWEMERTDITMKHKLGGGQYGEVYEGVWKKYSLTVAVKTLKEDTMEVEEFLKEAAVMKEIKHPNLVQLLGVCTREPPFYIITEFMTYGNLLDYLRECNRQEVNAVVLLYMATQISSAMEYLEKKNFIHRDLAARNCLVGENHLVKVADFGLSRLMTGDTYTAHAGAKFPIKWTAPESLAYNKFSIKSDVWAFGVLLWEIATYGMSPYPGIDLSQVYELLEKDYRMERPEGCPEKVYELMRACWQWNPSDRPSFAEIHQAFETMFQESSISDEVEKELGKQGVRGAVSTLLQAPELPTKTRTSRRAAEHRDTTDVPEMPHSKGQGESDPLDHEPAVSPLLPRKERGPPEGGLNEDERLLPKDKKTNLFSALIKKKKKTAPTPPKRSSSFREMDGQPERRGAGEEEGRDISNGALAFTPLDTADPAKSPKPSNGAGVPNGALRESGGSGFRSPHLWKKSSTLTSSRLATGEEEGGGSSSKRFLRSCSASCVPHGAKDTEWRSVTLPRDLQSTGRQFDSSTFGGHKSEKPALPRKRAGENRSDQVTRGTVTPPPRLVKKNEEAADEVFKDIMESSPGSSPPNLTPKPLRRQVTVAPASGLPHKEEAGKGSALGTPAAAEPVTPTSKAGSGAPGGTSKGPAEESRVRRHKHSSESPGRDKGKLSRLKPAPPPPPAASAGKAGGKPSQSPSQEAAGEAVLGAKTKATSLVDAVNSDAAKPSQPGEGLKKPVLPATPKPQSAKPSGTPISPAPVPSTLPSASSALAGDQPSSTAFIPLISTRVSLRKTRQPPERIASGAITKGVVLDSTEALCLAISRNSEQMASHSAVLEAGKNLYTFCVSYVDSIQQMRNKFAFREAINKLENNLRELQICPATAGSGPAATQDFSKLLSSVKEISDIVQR
Ras and Rab interactor 1/Tyrosine-protein kinase ABL1, sequence (Q13671 whole entry): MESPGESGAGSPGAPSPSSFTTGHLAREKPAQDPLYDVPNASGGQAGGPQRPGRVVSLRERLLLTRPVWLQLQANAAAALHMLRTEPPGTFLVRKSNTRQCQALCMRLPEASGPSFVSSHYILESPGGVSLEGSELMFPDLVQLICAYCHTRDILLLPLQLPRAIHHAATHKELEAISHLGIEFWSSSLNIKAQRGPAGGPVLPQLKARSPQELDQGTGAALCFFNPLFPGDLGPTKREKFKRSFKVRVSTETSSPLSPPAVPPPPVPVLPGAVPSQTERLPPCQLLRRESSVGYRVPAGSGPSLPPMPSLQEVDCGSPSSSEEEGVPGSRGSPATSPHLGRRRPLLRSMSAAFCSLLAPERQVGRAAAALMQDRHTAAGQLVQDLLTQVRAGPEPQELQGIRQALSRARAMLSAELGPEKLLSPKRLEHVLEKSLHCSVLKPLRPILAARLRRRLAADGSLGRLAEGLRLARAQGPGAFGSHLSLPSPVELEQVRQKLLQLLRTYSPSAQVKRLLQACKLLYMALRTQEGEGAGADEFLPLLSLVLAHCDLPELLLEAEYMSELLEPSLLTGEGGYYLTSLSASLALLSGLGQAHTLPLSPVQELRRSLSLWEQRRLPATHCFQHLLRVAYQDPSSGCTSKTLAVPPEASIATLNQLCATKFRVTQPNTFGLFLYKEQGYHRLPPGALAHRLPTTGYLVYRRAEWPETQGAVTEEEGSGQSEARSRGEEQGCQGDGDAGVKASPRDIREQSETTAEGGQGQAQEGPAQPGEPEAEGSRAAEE
Estrogen receptor beta, sequence (Q92731 whole entry): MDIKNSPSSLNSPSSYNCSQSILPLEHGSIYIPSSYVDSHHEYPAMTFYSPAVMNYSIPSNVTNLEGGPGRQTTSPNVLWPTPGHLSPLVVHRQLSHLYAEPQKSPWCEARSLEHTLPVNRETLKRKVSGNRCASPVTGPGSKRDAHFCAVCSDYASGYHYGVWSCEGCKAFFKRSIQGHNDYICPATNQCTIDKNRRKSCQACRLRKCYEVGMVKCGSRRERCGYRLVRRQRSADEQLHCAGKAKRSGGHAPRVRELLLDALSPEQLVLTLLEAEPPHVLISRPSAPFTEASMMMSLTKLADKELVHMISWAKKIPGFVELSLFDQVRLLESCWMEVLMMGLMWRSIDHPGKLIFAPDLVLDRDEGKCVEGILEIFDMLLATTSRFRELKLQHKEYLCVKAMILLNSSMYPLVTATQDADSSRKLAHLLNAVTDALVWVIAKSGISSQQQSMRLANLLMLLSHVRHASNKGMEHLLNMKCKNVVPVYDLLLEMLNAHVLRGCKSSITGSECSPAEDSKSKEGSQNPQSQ
Photoreceptor-specific nuclear receptor, sequence (Q9Y5X4 whole entry): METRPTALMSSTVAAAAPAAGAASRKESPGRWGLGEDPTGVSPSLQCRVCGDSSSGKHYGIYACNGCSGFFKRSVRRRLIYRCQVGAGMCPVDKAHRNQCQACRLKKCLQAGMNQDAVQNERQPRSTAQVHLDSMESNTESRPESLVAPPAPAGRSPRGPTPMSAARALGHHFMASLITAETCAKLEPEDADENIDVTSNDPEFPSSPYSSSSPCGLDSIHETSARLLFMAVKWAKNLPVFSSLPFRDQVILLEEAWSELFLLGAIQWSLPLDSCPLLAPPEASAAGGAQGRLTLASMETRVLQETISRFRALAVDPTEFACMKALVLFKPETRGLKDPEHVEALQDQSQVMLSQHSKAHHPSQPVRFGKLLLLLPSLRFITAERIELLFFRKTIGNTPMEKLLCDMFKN
Protein Tat, sequence (P04608 whole entry): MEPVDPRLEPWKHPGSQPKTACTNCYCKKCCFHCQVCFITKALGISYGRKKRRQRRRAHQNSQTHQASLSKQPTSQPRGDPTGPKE
Aspartyl aminopeptidase, sequence (Q8I2J3 whole entry): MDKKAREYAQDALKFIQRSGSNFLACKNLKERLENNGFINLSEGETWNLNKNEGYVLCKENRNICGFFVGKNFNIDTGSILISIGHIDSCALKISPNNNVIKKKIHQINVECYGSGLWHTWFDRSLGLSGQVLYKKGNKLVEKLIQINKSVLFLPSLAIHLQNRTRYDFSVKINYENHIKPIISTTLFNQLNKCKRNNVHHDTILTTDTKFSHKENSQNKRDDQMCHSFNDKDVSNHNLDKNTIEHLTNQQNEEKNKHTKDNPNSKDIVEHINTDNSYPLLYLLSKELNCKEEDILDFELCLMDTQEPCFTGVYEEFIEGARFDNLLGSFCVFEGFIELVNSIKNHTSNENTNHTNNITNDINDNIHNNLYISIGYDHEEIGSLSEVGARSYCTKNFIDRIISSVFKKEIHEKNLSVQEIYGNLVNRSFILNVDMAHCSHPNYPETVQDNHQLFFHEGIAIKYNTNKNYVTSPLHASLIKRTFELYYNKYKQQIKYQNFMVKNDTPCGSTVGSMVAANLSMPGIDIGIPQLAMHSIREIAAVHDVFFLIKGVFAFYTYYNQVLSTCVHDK
Bcl-2-like protein 1, sequence (Q07817 whole entry): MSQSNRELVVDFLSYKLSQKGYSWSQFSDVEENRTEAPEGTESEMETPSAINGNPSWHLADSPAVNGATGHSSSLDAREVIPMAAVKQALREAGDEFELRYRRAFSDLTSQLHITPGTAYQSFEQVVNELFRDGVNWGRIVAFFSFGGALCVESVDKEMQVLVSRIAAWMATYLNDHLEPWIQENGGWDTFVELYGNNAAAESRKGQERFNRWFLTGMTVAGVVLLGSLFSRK
Genome polyprotein, sequence (Q2Q167 whole entry): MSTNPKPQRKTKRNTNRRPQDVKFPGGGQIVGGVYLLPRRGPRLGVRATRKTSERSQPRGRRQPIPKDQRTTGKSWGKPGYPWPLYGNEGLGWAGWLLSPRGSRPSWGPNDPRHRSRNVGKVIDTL

On to `CCOC(=O)c1sc(NC(=S)NC(=O)C2CC2)cc1C`, for which the IC50 in assay [1] is > 49.8 µM (not active).

Regarding `Cc1ccc(C(=O)OCC(=O)c2cc(C)n(Cc3ccccc3)c2C)o1`, the concentration giving a half-maximal response (EC50) in assay [2] is recorded as > 30 µM (not active).

Take `NC(=Nc1nc2ccccc2o1)NC(=O)c1ccccc1NC(=O)c1ccccc1`: the IC50 is > 50 µM (not active) in assay [3] and > 50 µM (inconclusive) in assay [4].

With `Fc1ccc2nc3[nH]c4ccccc4c3nc2c1`, in [5], the IC50 is given as 18.4 µM (not active). In addition, the results for the AC50 in assay [6] and in assay [7] were 20 µM (inconclusive) and 10 µM (inconclusive), respectively.

With `COc1ccc(-n2c(Cc3cccn3C)nnc2SCC(N)=O)cc1`, the IC50 in assay [8] and in [9] was > 100 µM (active) in each case.

Turning to `CCOC(=O)c1oc2ccccc2c1NC(=O)c1cc(OC)cc(OC)c1`, the EC50 in [10] is on record as > 50 µM (not active).

Take `CCc1cccc(NC(=O)CCCCCC2NC(=O)NC2C)c1` (configuration not stated): the IC50 in assay [11] was 0.825 µM (active); in assay [12], 0.00897 µM (active); in assay [14], 9.93 µM (active). Besides, the CC50 in assay [13] is > 40 µM (active).

On to `CCOc1ccc(NC(=O)N(C2CCCCC2)C2CCN(C(C)=O)CC2)cc1`, for which, in assay [15], the IC50 was > 100 µM (active).

Consider `CN(C)c1ccc(C#Cc2ccc3cc(CCO)oc(=O)c3c2)cc1`, for which the IC50 in [16] and in assay [17] was > 39.8 µM (not active) throughout.

On to `Cc1ccc(Nc2nnc(SC/C(O)=C(\C#N)c3nc4ccccc4[nH]3)s2)c(C)c1`, for which the IC50 in assay [18] is 6.03 µM (active); in assay [19], > 73.5 µM (not active); in [20], > 59.6 µM (not active); in assay [21], 7.79 µM (active); in [22], 21.4 µM (active).

On to `Clc1cccc(C2Nc3cccc4cccc(c34)N2)c1`, for which the IC50 in [23] is on record as 28.6 µM (not active); in assay [24], > 109 µM (not active).

As to `CCCNC(=O)c1cc(SC)ccc1Cl`, the IC50 in [25] was > 100 µM (inactive); in assay [26] it was > 100 µM (not active).

For `O=C(O)c1sc2cc(C(F)(F)F)cnc2c1-c1cccnc1`, the IC50 in assay [27] is reported as > 30 µM (not active).

As to `O=C1OC2(c3ccccc31)c1cc(I)c(O)c(I)c1Oc1c2cc(I)c(O)c1I` [ERYTHROSINE], the IC50 in assay [28] is 13 µM (active); in assay [29], 2.93 µM (active); in assay [30], > 40 µM (inactive).

Consider `N#C[C@@H]1[C@H](c2ccc(C3=CCCC3)cc2)[C@@H](CO)N1C(=O)NC1CCCC1`, for which the AC50 was 15.8 µM (active) in [31]; 82 µM (active) in assay [32]; 0.615 µM (active) in [33]; 0.395 µM (active) in assay [34]; 0.647 µM (active) in [35]; 0.694 µM (active) in [36].

With `CN1c2ccccc2Sc2cc(NC(=O)CCl)ccc21`, the IC50 in [37] was 0.653 µM (active).

One may read the EC50 as the concentration at which the effect is half-maximal. A higher EC50 goes with a need for much substance. As a reminder, the AC50 is the concentration at which the activity in the assay is half-maximal. For orientation: CC50 means the concentration at which the toxic effect on the cells reaches its halfway point.
